Measured values from patent publication US12240870B2, “Sequencing method for CAR T cell therapy” (Purdue Research Foundation, priority 2018, dated 2025).
Entries after “also recorded” stand apart in the source; their conditions may differ.

What was measured:
unsorted E2-CAR-T cells = experiment: 3H-EC17 uptake by E2-CAR-T cells; parameters: species or system human; conditions: unsorted E2-CAR-T cells (~24% EGFRt+, ~95:5 CD8/CD4), 2 hour at room temperature; read-out: Kd of 3H-EC17 binding to E2-CAR-T cells
Protocol: FIG. 10, Panel A: Kd values of ^3H-EC17 uptake by FR+ target cells after a 2 hour incubation at 37° C. (calculated from the numbers of molecules bound per cell). Panel B: Kd value of ^3H^−EC17 uptake by E2-CAR-T cells (˜24% EGFRt+, ˜95:5 CD8/CD4 ratio) after a 2 hour incubation at room temperate (calculated from total cell-associated radioactivity, DPM).
The EC17 has already been tested in the clinic for immunotherapy and optical imaging purposes. To directly quantify its bispecific binding affinities, ^3H-EC17 was synthesized and radioligand binding assays were carried out on KB and CHO-β cell lines representing FRα+ and FRβ+ target cells, respectively, and on unsorted EGFRt CAR-T cells representing the effector cells.

THP1-FRβ xenografts = experiment: THP1-FRβ AML intravenous xenograft, E2 CAR-T cells plus EC17; type: in vivo, NSG mice
Protocol: Panel A: Schematic diagrams to show dose scheduling of EC17 plus unsorted EGFRt CAR-T cells (˜6 million, day 0) in NSG mice with 1-day-old intravenous THP1-FRβ xenografts. Starting 3 days after CAR-T cell injection, EC17 was dosed in 3 different ways: EC17 SIW 500 nmol/kg ([…] on days 3, 10, 17, 24, 31, and 38), EC17 TIW 5/50/500 nmol/kg (3 repeats of 5/50/500 nmol/kg on Monday/Wednesday/Friday followed by a 9-day break, i.e. on days 3/5/7, 17/19/21 and 31/33/35), or EC17 M/Th/M_dose escalation on Monday/Thursday/Monday (3 escalation cycles at 5/10/100 nmol/kg in Cycle 1, 5/30/300 nmol/kg in Cycle 2, and 5/50/500 nmol/kg in Cycle 3, i.e. on days 3/6/10, 17/20/24, and 31/34/38). Panel B: Measurements of change in body weight (n=5). Panel C: Circulating CAR-T cells as human CD3ε+ EGFRt+ events found per 100 μL of mouse whole blood on a logarithmic scale on day 31. Panel D: Left bar graph: circulating tumor cells (GFP+) per 100 μL of whole blood in all cohorts measured at the end of study (day 39); Middle bar graph: THP1-FRβ infiltrated liver weights representing liver metastatic burden; Right bar graph: total tumor weights of all non-liver macrometastases. Panel E: Flow cytometric analysis of T-cell exhaustion markers, PD1, LAG3, TIM3, on preinfusion CAR-T cell product (triple-negative) and tumor-infitrating CAR-T cells isolated from liver metastases. A cardinal feature of fully exhausted T cells is co-expression of multiple inhibitory receptor markers (i.e. triple-positive).
One objective of this E2-CAR T-cell study was to test EC17/E2 CAR-T cell activity and related toxicity (e.g. sCRS) using multiple dosing regimens starting 3 days after CAR-T infusion. Three different EC17 dosing regimens include (a) once-a-week (SIW) at 500 nmol/kg, (b) “TIW-like” at 5, 50, and 500 nmol/kg on Monday/Wednesday/Friday with 9-day intervals, and (c) “TIW-like” at […] on Monday/Thursday/Monday with 7-day intervals.
THP-1-FRβ AML tumor cells were grown in folate-deficient RPMI 1640 with 5-10% FBS at 37° C. in a 5% CO2 humidified atmosphere. THP-1-FRβ tumor cells in serum-free folate-deficient RPMI1640 medium were i.v. injected at 5×10^6 cells per animal.
Anti-FITC E2 scFv-CAR T cells were frozen in a T-cell freezing medium. Upon arrival, vials of frozen CAR-T cells were immediately stored at −80° C. The CAR-T cells were quickly thawed at 37° C., washed twice with CAR-T cell culture medium, and used for animal injection at 6 million viable EGFRt+ E2 CAR-T cells (CD4/CD8 at ˜1:1) per animal. A small aliquot was taken on the day infusion for flow cytometric analysis of E2-CAR T-cell phenotypes.
EC17 and bis-EDA-FITC dosing solutions were prepared when dosing began by weighing appropriate amounts of each compound, reconstituting in PBS, pH 7.4, sterile filtering the drug solution through a 0.22 μm PVDF syringe filter, and freezing aliquots for each day of dosing at −20° C.
All EC17 doses were given towards the end of day (3-4 PM) to allow potential CRS (cytokine release syndrome) to develop overnight. In the following morning, animals were scored according to a CRS grading system (see below).
Daily body weight measurement on the days after EC17 dose is required. Attention was given to gross animal morphology and behavior. Euthanasia was performed if mice lose a lot of weight in a short duration or when mice are approaching moribund conditions per CRS grading system or neurotoxicity.
Whole blood cell analysis: Plasma was removed from predetermined volumes of whole EDTA treated blood and RBCs were lysed with RBC lysis solution. […]

In the case of `Nc1nc2ncc(CNc3ccc(C(=O)N[C@@H](CCC(=O)NCCNC(=S)Nc4ccc(-c5c6ccc(=O)cc-6oc6cc(O)ccc56)c(C(=O)O)c4)C(=O)O)cc3)nc2c(=O)[nH]1` [EC17, FA-(γ)-ethylenediamine-FITC], the Kd (unsorted E2-CAR-T cells) is reported as ~130 nM, the non-liver macrometastases (THP1-FRβ xenografts; EC17 SIW 500 nmol/kg) is reported as “successfully controlled non-liver macrometastases” and the CRS grade (THP1-FRβ xenografts; EC17 SIW 500 nmol/kg (Cohort 3)) is reported as 1-2. The non-liver macrometastases (THP1-FRβ xenografts; EC17 TIW 5/50/500 nmol/kg on/off) was “successfully controlled non-liver macrometastases”, the “overall anti-tumor activity / THP1-FRβ tumor burden, comparison of regimens” value (THP1-FRβ xenografts; EC17 TIW 5/50/500 nmol/kg on/off (Cohort 4)) was “best anti-tumor activity among the three different EC17 dose schedules; also recorded: trended to be the best regimen for reducing overall THP1-FRβ tumor burden” and the “circulating THP1-FRβ tumor cells (GFP+) per 100 μL whole blood” value (THP1-FRβ xenografts; all three EC17 dosing regimens, day 39) was “significant reduction in circulating THP1 cell burden; also recorded: effectively reduced circulating THP1-FRβ tumor cells in the blood”. The “severe CRS (grades ≥3)” value (THP1-FRβ xenografts; any EC17 treated cohort (SIW, TIW, M/Th/M)) was “no severe CRS”, the body weight loss (THP1-FRβ xenografts; ~6 million E2 CAR-T + EC17 SIW 500 nmol/kg (Cohort 3)) was “EC17 dose-dependent body weight loss after each EC17 dose; also recorded: some body weight loss” and the body weight loss (THP1-FRβ xenografts; ~6 million E2 CAR-T + EC17 TIW 5/50/500 nmol/kg M/W/F, 9-day break (Cohort 4)) was “mildest body weight loss among three treatment groups; also recorded: least body weight loss”.
